Among the data in patent publication US20030229066A1, “Novel heterocyclic urea derivatives and their use as dopamine D3 receptor ligands” (priority 2001, published 2003) are Ki values, retold here.

pKi: −log10 of the molar value.

The target of one test is T1, cloned human dopamine D3 receptors (Homo sapiens, UniProt P35462).
T1 construct: expressed in transfected cells
T1 sequence (P35462 whole entry): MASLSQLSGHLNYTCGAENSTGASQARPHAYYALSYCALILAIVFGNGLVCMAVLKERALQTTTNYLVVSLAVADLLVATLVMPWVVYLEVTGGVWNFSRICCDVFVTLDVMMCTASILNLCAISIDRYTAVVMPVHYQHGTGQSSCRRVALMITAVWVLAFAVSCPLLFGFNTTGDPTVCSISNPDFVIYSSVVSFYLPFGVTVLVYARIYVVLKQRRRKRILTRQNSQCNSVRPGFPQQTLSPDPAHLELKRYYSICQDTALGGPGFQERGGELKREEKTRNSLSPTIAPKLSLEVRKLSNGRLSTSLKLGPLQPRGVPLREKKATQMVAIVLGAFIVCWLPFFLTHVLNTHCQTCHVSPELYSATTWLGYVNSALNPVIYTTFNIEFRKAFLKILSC
Nature of the test: [N-Methyl-3H]Spiroperidol binding to cloned human dopamine D3 receptors.
Conditions: not given
The text has this: [N-Methyl-^3H]Spiroperidol Binding to Cloned Human Dopamine D3 Receptors
This assay measures the in vitro activity of compounds on cloned human dopamine (D3) receptors and predicts the direct dopamine-blocking properties of putative neuropsychiatric agents at human dopamine D3 receptors.
The D3 gene was isolated from a human striatal cDNA library (Stratagene). The gene was sequenced and sub-cloned into the expression vector RC/RSV (Invitrogen). CHO (Chinese Hamster Ovary) cells were stably transfected with 10 μg of the D3/RSV plasmid using the DOTAP method from Boehringer Mannheim and 72 clones that were G418 resistant were isolated. Using mRNA and binding displacement data a single high expressing clone was identified. This clone was then grown in large batches for the purpose of developing a 96 well format assay.
The cells are harvested into 250 ml centrifuge tubes with 100 volumes of cold phosphate buffered saline (PBS) and spun down (1200×G for 10 min at 4° C.). The medium is removed and 100 ml PBS are added to each centrifuge tube, cells are resuspened and spun down again. The PBS is removed and the final pellet is homogenized in an appropriate volume of 10% DMSO with a polytron on ice at a medium setting.
For Kj determinations: [^3H]NMSP is made up to a concentration of 2.7 nM in buffer 2b, such that when 150 μl is added to each tube a final concentration of 0.4 nM is attained in the 1 ml assay. Samples of total CPM added are taken for each experiment to calculate the total ligand concentration.
5. S(-)-Eticlopride is obtained from Research Biochemicals International (RBI catalog number E-101). A refrigerated stock (good for up to a month) solution of S(-)-eticlopride is made at a concentration of 30 μM in buffer 2b. One hundred microliters are added to 3 wells for the determination of nonspecific binding (this yields a final concentration of 3 μM in the 1 ml assay).
For most assays, a 100 μM stock solution of the test compound is made up in a suitable solvent (usually <0.1% acetic acid) and serially diluted with buffer 2b, such that when 100 μl of drug is combined with the total 1 ml assay, final concentrations ranging from 10^−5-10^−8 M are attained. Characteristically eight concentrations are studied for each assay; however, higher or lower concentrations may be used, depending on the potency of the drug.
The 96-Well Packard Unifilters GF/B are incubated for >1 h at 25° C. in 0.1% polyethylamine (from 3,b). The cold tissue is added last and mixed on a orbital shaker for a few seconds and is then incubated at 37° C. for 30 min in a shaking water bath. The assay is stopped by rapid filtration through Packard Unifilter plates. The filter membranes are then washed with 15 ml of ice-cold 0.05 M Tris buffer. The filters are then dried (˜15 min under a heat lamp or incubated for 15 min in a 60° C. oven) and a bottom seal is applied. Then 40 μl of Packard Microscint 20 scintillation cocktail is added and a permanent topseal (Type P) is applied and heat sealed. The plates are then shaken on an orbital shaker for 1 h and placed in the Packard Topcount and counted for at least 5 minutes for each point.
Specific binding is defined as the difference between total binding and the binding in the presence of 3 μM S-(-)-eticlopride. Total binding is approximately 10% of the total added ligand. Cheng-Prusoff determination (Kj's) are performed using Prism software using a one-site competition curve analysis where the top and the bottom of the non-linear regression are held constant at 0% and 100% percent inhibition. The percent inhibition at each drug concentration is the mean of duplicate determinations.
With `CC(=O)c1ccc(NC(=O)NCCCCN2C3CCC2CC(c2noc4cc(F)ccc24)C3)cc1` (stereo not drawn) [compound 817228], the pKi was 6.75.
Same read-out and setting: in the case of `O=C(NCCCCN1C2CCC1CC(c1noc3cc(F)ccc13)C2)Nc1ccccc1F` (stereo not drawn) [compound 817229] it was 6.44; in that of `O=C(NCCCCN1C2CCC1CC(c1noc3cc(F)ccc13)C2)Nc1ccc(-c2ccccc2)cc1` (stereo not drawn) [compound 817230], 6.74.
`O=C(NCCCCN1C2CCC1CC(c1noc3cc(F)ccc13)C2)Nc1cccc(C(F)(F)F)c1` (stereo not drawn) [compound 817231]: the pKi is 6.36.
In the case of `Cc1ccc(NC(=O)NCCCCN2C3CCC2CC(c2noc4cc(F)ccc24)C3)cc1` (stereo not drawn) [compound 817234], the pKi was 6.59.
Take `O=C(NCCCCN1CCN(c2n[nH]c3ccsc23)CC1)Nc1ccc(C(F)(F)F)cc1` [compound 825154]: the pKi is 7.45.
On the same count and under the same terms, for `O=C(NCCCCN1CCN(c2n[nH]c3ccsc23)CC1)Nc1ccc(OC(F)(F)F)cc1` [compound 825155] the value was 7.07; for `CCOc1ccc(NC(=O)NCCCCN2CCN(c3n[nH]c4ccsc34)CC2)cc1` [compound 825156], 7.20; for `O=C(NCCCCN1CCN(c2nn(C(=O)Nc3ccccc3C(F)(F)F)c3ccsc23)CC1)Nc1ccccc1C(F)(F)F` [compound 825160], 6.69.
`O=C(NCCCCN1CCN(c2nn(C(=O)Nc3ccc(OC(F)(F)F)cc3)c3ccsc23)CC1)Nc1ccc(OC(F)(F)F)cc1` [compound 825167] had a pKi of 6.43.
In turn, `CCOc1ccc(NC(=O)NCCCCN2CCN(c3nn(C(=O)Nc4ccc(OCC)cc4)c4ccsc34)CC2)cc1` [compound 825168] showed a pKi of 7.32.
Still for that read-out and setting: for `O=C(NCCCCN1CCN(c2cn(C(=O)Nc3ccc(F)cc3)c3ccsc23)CC1)Nc1ccc(F)cc1` [compound 825170] the value was 6.87; for `O=C(NCCCCN1CCN(c2nn(C(=O)Nc3ccc(F)cc3F)c3ccsc23)CC1)Nc1ccc(F)cc1F` [compound 825171], 6.30; for `O=C(NCCCCN1CCCN(c2csc3cc(F)ccc23)CC1)Nc1ccc(Cl)c(Cl)c1` [compound 829191], 7.37.
On to `Cc1cccc(NC(=O)NCCCCN2CCCN(c3csc4cc(F)ccc34)CC2)c1` [compound 829192], for which the pKi was 8.39.
The molecule `O=C(NCCCCN1CCCN(c2csc3cc(F)ccc23)CC1)Nc1cccc(Cl)c1` [compound 829193] showed a pKi of 8.10.
In turn, `O=C(NCCCCN1CCCN(c2csc3cc(F)ccc23)CC1)Nc1ccc(C(F)(F)F)cc1` [compound 829195] showed a pKi of 7.68.
Consider `O=C(NCCCCN1CCCN(c2csc3cc(F)ccc23)CC1)Nc1cccc(Br)c1` [compound 829196], for which the pKi was 7.96.
`O=C(NCCCCN1CCCN(c2csc3cc(F)ccc23)CC1)Nc1ccc(OC(F)(F)F)cc1` [compound 829197] showed a pKi of 7.46.
Take `O=C(NCCCCN1CCCN(c2csc3cc(F)ccc23)CC1)Nc1cc(C(F)(F)F)cc(C(F)(F)F)c1` [compound 829198]: the pKi was 7.18.
Still for that read-out and setting: for `O=C(NCCCCN1CCCN(c2csc3cc(F)ccc23)CC1)Nc1ccc(Cl)c(C(F)(F)F)c1` [compound 829200] the value was 7.32; for `O=C(NCCCCN1CCCN(c2csc3cc(F)ccc23)CC1)Nc1cc(Cl)cc(Cl)c1` [compound 829202], 7.78; for `Cc1ccc(NC(=O)NCCCCN2CCCN(c3csc4cc(F)ccc34)CC2)cc1` [compound 829203], 8.25.
Same read-out and setting: in the case of `CSc1ccc(NC(=O)NCCCCN2CCCN(c3csc4cc(F)ccc34)CC2)cc1` [compound 829204] it was 8.30; in that of `CC(=O)c1cccc(NC(=O)NCCCCN2CCCN(c3csc4cc(F)ccc34)CC2)c1` [compound 829206], 8.60.

The same test, now with this note: Table III; read-out: d3Ki.
For `O=C(NCCCCN1CCN(c2csc3cc(C(F)(F)F)ccc23)CC1)NCc1ccccc1` [compound 815998], the pKi is 7.65.
On to `COc1ccccc1NC(=O)NCCCCN1CCN(c2csc3cc(C(F)(F)F)ccc23)CC1` [compound 815999], for which the pKi was 7.72.
Take `O=C(NCCCCN1CCN(c2csc3cc(C(F)(F)F)ccc23)CC1)Nc1ccc(F)cc1` [compound 816004]: the pKi was 8.21.
Still for that read-out and setting: in the case of `O=C(NCCCCN1CCN(c2csc3cc(C(F)(F)F)ccc23)CC1)Nc1ccc(F)cc1F` [compound 816006] it was 8.13; in that of `Cc1ccccc1NC(=O)NCCCCN1CCN(c2csc3cc(C(F)(F)F)ccc23)CC1` [compound 816007], 7.76; in that of `COc1ccc(NC(=O)NCCCCN2CCN(c3csc4cc(C(F)(F)F)ccc34)CC2)c(OC)c1` [compound 816008], 7.77.
For `O=C(NCCCCN1CCC(c2noc3ccsc23)CC1)NC12CC3CC(CC(C3)C1)C2` [compound 816210], the pKi is 6.73.
Turning to `CC(=O)c1ccc(NC(=O)NCCCCN2CCN(c3c(-c4ccccc4)sc4cc(F)ccc34)CC2)cc1` [compound 816226], the pKi is 6.74.
For `O=C(NCCCCN1CCN(c2c(-c3ccccc3)sc3cc(F)ccc23)CC1)NC1CCCCC1` [compound 816232], the pKi was 8.23.
Regarding `O=C(NCCCCN1CCC(c2noc3ccsc23)CC1)Nc1ccc(F)c([N+](=O)[O-])c1` [compound 816557], the pKi is 7.68.
Take `O=C(NCCCCN1CCC(c2noc3ccsc23)CC1)Nc1ccc(Cl)c([N+](=O)[O-])c1` [compound 816559]: the pKi is 7.88.
As to `O=C(NCCCCN1CCC(c2noc3ccsc23)CC1)Nc1ccc([N+](=O)[O-])cc1` [compound 816562], the pKi was 8.16.
With `CCCCOc1ccc(NC(=O)NCCCCN2CCC(c3noc4ccsc34)CC2)cc1` [compound 816564], the pKi was 7.25.
Still for that read-out and setting: in the case of `O=C(NCCCCN1CCC(c2noc3ccsc23)CC1)Nc1ccc(Cl)cc1Cl` [compound 816566] it was 7.02; in that of `COc1ccc(NC(=O)NCCCCN2CCC(c3noc4ccsc34)CC2)c(OC)c1` [compound 816567], 7.13; in that of `CCOc1ccccc1NC(=O)NCCCCN1CCC(c2noc3ccsc23)CC1` [compound 816764], 7.07.
On the same count and under the same terms, in the case of `O=C(NCCCCN1CCC(c2noc3ccsc23)CC1)Nc1c(F)cccc1F` [compound 816766] it was 7.37; in that of `COc1ccc(NC(=O)NCCCCN2CCC(c3noc4ccsc34)CC2)c(OC)c1` [compound 816767], 7.22; in that of `O=C(NCCCCN1CCC(c2noc3ccsc23)CC1)Nc1ccc(Cl)cc1Cl` [compound 816769], 7.24.
Still for that read-out and setting: for `COc1cc(Cl)c(NC(=O)NCCCCN2CCC(c3noc4ccsc34)CC2)c(OC)c1` [compound 816770] the value was 7.55; for `COc1c(Cl)cccc1NC(=O)NCCCCN1CCC(c2noc3ccsc23)CC1` [compound 816771], 7.13.
In the case of `CCOc1ccccc1NC(=O)NCCCCN1CCC(c2noc3ccsc23)CC1` [compound 816876], the pKi is 7.33.
On the same count and under the same terms, for `O=C(NCCCCN1CCC(c2noc3ccsc23)CC1)Nc1c(F)cccc1F` [compound 816878] the value was 7.47; for `COc1ccc(NC(=O)NCCCCN2CCC(c3noc4ccsc34)CC2)c(OC)c1` [compound 816879], 7.33; for `O=C(NCCCCN1CCC(c2noc3ccsc23)CC1)Nc1cc(C(F)(F)F)cc(C(F)(F)F)c1` [compound 816881], 7.62.
For `COc1cc(Cl)c(NC(=O)NCCCCN2CCC(c3noc4ccsc34)CC2)c(OC)c1` [compound 816882], the pKi was 7.23.
As for `COc1c(Cl)cccc1NC(=O)NCCCCN1CCC(c2noc3ccsc23)CC1` [compound 816883], the pKi was 7.45.
The same measure, in the same setting: in the case of `O=C(NCCCCN1CCC(c2noc3ccsc23)CC1)NCc1ccc(Cl)cc1Cl` [compound 816968] it was 7.62; in that of `COc1ccc(NC(=O)NCCCCN2CCC(c3noc4ccsc34)CC2)c(OC)c1` [compound 818310], 6.88.
